Measured values taken from patent publication US8461305B2, “L-fucose α1→6 specific lectin” (J-Oil Mills, Inc., priority 2008, dated 2013).

What was measured:
[1] = frontal affinity chromatography (FAC), association constant to PA sugar chains without L-fucose; format: binding; settings: for association constant Ka: 25 degrees C.
Protocol: (§1) The following section will describe a method of calculating an association constant by frontal affinity chromatography (FAC). This method is based on the following principle. […] Then, the elution front end (front) is observed immediately. When there is an affinity with lectin, the elution of the sugar chain is delayed.
(§2) The preparation of a lectin column used in the apparatus is performed in the method as described below. 1. Purified lectin is dissolved in 0.1 to 0.2M of NaHCO3 buffer solution (pH 8.3 to 8.5). 2. The lectin is immobilized, via a lectin primary amino group, a carrier such as NHS activated sepharose. 3. Then, the lectin is blocked by Tris buffer solution including primary amine or ethanolamine for example. 4. Lectin-sepharose is suspended in 10 mM Tris buffer, including 0.8% of NaCl (pH 7.4, TBS). Then, lectin immobilized resin is filled in a miniature column (φ2 mm×10 mm, 31.4 μl). 5. The miniature column in which the lectin immobilized resin is filled is protected by a holder and the lectin column is connected to an FAC automatic analysis apparatus (FAC-1, SHIMADZU CORPORATION).
(§3) Then, the elution of the PA sugar chain from the column is detected by a fluorescence detector (excitation wavelength/fluorescence wavelength: 310 nm/380 nm).
(§4) Based on the detection data, by using the elution front end (Vo) of the sugar chain (PA rhamnose) not interacting with lectin as a reference, the delay (V−Vo) of the elution front end (V) of a sugar chain interacting with lectin is calculated as an interaction strength. Then, based on the following FAC criteria expressions, the association constant (Ka) between the sugar chain and lectin is calculated based on V−Vo and Bt. If the interaction strength (V−Vo value) and the association constant are higher, a higher affinity is caused between lectin and an L-fucose α1→6 sugar chain.
(§5) [In the formula, A means substance used for the elution, Ao means the initial concentration of the substance A, B means a immobilized ligand, V means the elution volume, Vo means the elution front end volume of the substance not interacting with the immobilized ligand B at all, Bt means an effective ligand amount, Kd means a dissociation constant (an inverse of the association constant)].
(§6) Pyridylaminated (PA) sugar chains shown in FIG. 1 and FIG. 2 were used to frontal affinity chromatography (FAC) analysis. PA sugars were purchased from TAKARA BIO INC., SEIKAGAKU BIOBUSINESS CORPORATION, and Masuda Chemical Industries co., LTD. PA sugar were also obtained by pyridylaminating, by GlycoTAG®(TAKARA BIO INC.), an unlabeled sugar chain or a sugar chain obtained by subjecting a sugar chain to enzyme digestion for example.
(§7) Lectin was dissolved in 0.2 M NaHCO3 buffer solution (pH 8.3) including 0.5 M NaCl and coupled to the NHS-activated sepharose (GE Healthcare Bioscience) by following the manufacturer's instructions. Then, lectin immobilized sepharose was suspended in 10 mM Tris buffer (pH 7.4, TBS) including […] and the resultant matter was filled in a miniature column (φ2 mm×10 mm, 31.4 μl).
(§8) Frontal affinity chromatography was performed using FAC automatic analysis apparatus (FAC-1, SHIMADZU CORPORATION). In particular, the above-prepared lectin column was inserted to a stainless steel holder and the holder was connected to FAC-1 apparatus. The flow rate and the column temperature were maintained at 0.125 ml/min and 25 degrees C., respectively. After the miniature column was equilibrated by the TBS, an excessive volume (0.5 ml to 4 ml) of a PA sugar chain (3.75 nM or 7.5 nM) was continuously inputted to the column using an automatic sampling apparatus.
(§9) The fluorescent strength of the eluate of the PA sugar (excitation wavelength of 310 nm and fluorescence wavelength of 380 nm) was monitored to measure the interaction strength [a difference of the front end eluate to the standard oligosaccharide (PA rhamnose): V−V0]. […]

[2] = frontal affinity chromatography (FAC), association constant to PA sugar chains having other L-fucose; format: binding; settings: for association constant Ka: 25 degrees C.
Protocol: as §1, §2, §3, §4, §5, §6, §7, §8, §9

Stropharia rugosoannulata lectin [SRL, novel L-fucose α1→6 specific lectin purified from the mushroom Stropharia rugosoannulata]
binding to sugar chain not having L-fucose ([1]; FAC): not bound
association constant Ka ([1]; Sugar chain No. 001): <1000 M⁻¹
association constant Ka ([1]; Sugar chain No. 002): <1000 M⁻¹
association constant Ka ([1]; Sugar chain No. 003): <1000 M⁻¹
association constant Ka ([1]; Sugar chain No. 004): <1000 M⁻¹
association constant Ka ([1]; Sugar chain No. 005): <1000 M⁻¹
association constant Ka ([1]; Sugar chain No. 006): <1000 M⁻¹
association constant Ka ([1]; Sugar chain No. 007): <1000 M⁻¹
association constant Ka ([1]; Sugar chain No. 008): <1000 M⁻¹
association constant Ka ([1]; Sugar chain No. 009): <1000 M⁻¹
association constant Ka ([1]; Sugar chain No. 010): <1000 M⁻¹
association constant Ka ([1]; Sugar chain No. 011): <1000 M⁻¹
association constant Ka ([1]; Sugar chain No. 012): <1000 M⁻¹
association constant Ka ([1]; Sugar chain No. 013): <1000 M⁻¹
association constant Ka ([1]; Sugar chain No. 014): <1000 M⁻¹
association constant Ka ([1]; Sugar chain No. 101): <1000 M⁻¹
association constant Ka ([1]; Sugar chain No. 103): <1000 M⁻¹
association constant Ka ([1]; Sugar chain No. 104): <1000 M⁻¹
association constant Ka ([1]; Sugar chain No. 105): <1000 M⁻¹
association constant Ka ([1]; Sugar chain No. 107): <1000 M⁻¹
association constant Ka ([1]; Sugar chain No. 108): <1000 M⁻¹
association constant Ka ([1]; Sugar chain No. 301): <1000 M⁻¹
association constant Ka ([1]; Sugar chain No. 304): <1000 M⁻¹
association constant Ka ([1]; Sugar chain No. 305): <1000 M⁻¹
association constant Ka ([1]; Sugar chain No. 307): <1000 M⁻¹
association constant Ka ([1]; Sugar chain No. 308): <1000 M⁻¹
association constant Ka ([1]; Sugar chain No. 313): <1000 M⁻¹
association constant Ka ([1]; Sugar chain No. 314): <1000 M⁻¹
association constant Ka ([1]; Sugar chain No. 323): <1000 M⁻¹
association constant Ka ([1]; Sugar chain No. 501): <1000 M⁻¹
association constant Ka ([1]; Sugar chain No. 502): <1000 M⁻¹
association constant Ka ([1]; Sugar chain No. 503): <1000 M⁻¹
association constant Ka ([1]; Sugar chain No. 504): <1000 M⁻¹
association constant Ka ([1]; Sugar chain No. 701): <1000 M⁻¹
association constant Ka ([1]; Sugar chain No. 702): <1000 M⁻¹
association constant Ka ([1]; Sugar chain No. 703): <1000 M⁻¹
association constant Ka ([1]; Sugar chain No. 704): <1000 M⁻¹
association constant Ka ([1]; Sugar chain No. 705): <1000 M⁻¹
association constant Ka ([1]; Sugar chain No. 706): <1000 M⁻¹
association constant Ka ([1]; Sugar chain No. 707): <1000 M⁻¹
association constant Ka ([1]; Sugar chain No. 708): <1000 M⁻¹
association constant Ka ([1]; Sugar chain No. 709): <1000 M⁻¹
association constant Ka ([1]; Sugar chain No. 710): <1000 M⁻¹
association constant Ka ([1]; Sugar chain No. 711): <1000 M⁻¹
association constant Ka ([1]; Sugar chain No. 712): <1000 M⁻¹
association constant Ka ([1]; Sugar chain No. 713): <1000 M⁻¹
association constant Ka ([1]; Sugar chain No. 715): <1000 M⁻¹
association constant Ka ([1]; Sugar chain No. 716): <1000 M⁻¹
association constant Ka ([1]; Sugar chain No. 717): <1000 M⁻¹
association constant Ka ([1]; Sugar chain No. 724): <1000 M⁻¹
association constant Ka ([1]; Sugar chain No. 725): <1000 M⁻¹
association constant Ka ([1]; Sugar chain No. 728 (as listed in Table 7)): <1000 M⁻¹
association constant Ka ([1]; Sugar chain No. 732): <1000 M⁻¹
association constant Ka ([1]; Sugar chain No. 733): <1000 M⁻¹
association constant Ka ([1]; Sugar chain No. 734): <1000 M⁻¹
association constant Ka ([1]; Sugar chain No. 735): <1000 M⁻¹
association constant Ka ([1]; Sugar chain No. 736): <1000 M⁻¹
association constant Ka ([1]; Sugar chain No. 737): <1000 M⁻¹
association constant Ka ([1]; Sugar chain No. 738): <1000 M⁻¹
association constant Ka ([1]; Sugar chain No. 901): <1000 M⁻¹
association constant Ka ([1]; Sugar chain No. 902): <1000 M⁻¹
association constant Ka ([1]; Sugar chain No. 903): <1000 M⁻¹
association constant Ka ([1]; Sugar chain No. 905): <1000 M⁻¹
association constant Ka ([1]; Sugar chain No. 906): <1000 M⁻¹
association constant Ka ([1]; Sugar chain No. 907): <1000 M⁻¹
binding to non-L-fucose α1→6 sugar chain ([2]; FAC): not bound
association constant Ka ([2]; Sugar chain No. 419): <1000 M⁻¹
association constant Ka ([2]; Sugar chain No. 420): <1000 M⁻¹
association constant Ka ([2]; Sugar chain No. 718): <1000 M⁻¹
association constant Ka ([2]; Sugar chain No. 719): <1000 M⁻¹
association constant Ka ([2]; Sugar chain No. 720): <1000 M⁻¹
association constant Ka ([2]; Sugar chain No. 721): <1000 M⁻¹
association constant Ka ([2]; Sugar chain No. 722): <1000 M⁻¹
association constant Ka ([2]; Sugar chain No. 723): <1000 M⁻¹
association constant Ka ([2]; Sugar chain No. 726): <1000 M⁻¹
association constant Ka ([2]; Sugar chain No. 727): <1000 M⁻¹
association constant Ka ([2]; Sugar chain No. 728 (as listed in Table 5/12)): <1000 M⁻¹
association constant Ka ([2]; Sugar chain No. 729): <1000 M⁻¹
association constant Ka ([2]; Sugar chain No. 730): <1000 M⁻¹
association constant Ka ([2]; Sugar chain No. 731): <1000 M⁻¹
association constant Ka ([2]; Sugar chain No. 739): <1000 M⁻¹
association constant Ka ([2]; Sugar chain No. 909): <1000 M⁻¹
association constant Ka ([2]; Sugar chain No. 910): <1000 M⁻¹
association constant Ka ([2]; Sugar chain No. 931): <1000 M⁻¹
association constant Ka ([2]; Sugar chain No. 932): <1000 M⁻¹
association constant Ka ([2]; Sugar chain No. 933): <1000 M⁻¹
